# From patent US5560912A, “Method for inhibiting growth of helicobacter pylori” (Technion Research & Development Foundation Ltd., priority 1994, dated 1996)
# Tests used:
# Helicobacter pylori [1] = test: Filter paper disc diffusion method, zone of inhibition; type: cell-based
# Method: The inhibition effect was determined in-vitro, using the "Filter paper disc diffusion method" as described by Laura L. Zaika, (journal of Food Safety 9,1988,p.97-118). According to the method used, an extract of the plant was deposited on a small filter paper disc having a diameter of 0.5 cm and then placed in the center of a Petri plate containing agar growth medium inoculated with the test microorganism. The plate was incubated under microaerophilic conditions in anaerobic jars at 37° C. for 3 to 4 days and observed for microbial growth. If the extract of Cinnamon exerts antimicrobial activity, the microorganism will not grow in an area surrounding the filter paper disc. This clear area, defined as "zone of inhibition" was measured and recorded in mm. This method is well-known also for determining the activity of an antibiotic compound, by measuring the zone of inhibition arround a disc containing a sample of the antibacterial compound to be tested.
# The assays used for the bacterial growth inhibition were as follows:
# Two organic Cinnamon extracts, methylene chloride and ethanol in concentrations of 0.05 mg and 0.1 mg respectively were spotted on standard discs and placed on Egg Yolk Emulsion agar plate center which was previously layered with 0,1 ml of a bacterial suspension having a concentration of 10^7 CFU ml.
# After the required incubation, the inhibition zone was recorded. In FIG. 2,there are presented the sensitivity of Helicobacter pylori, as determined by the inhibition diameter, using two organic extracts of Cinnamon (0,05 mg and 0.1 mg dry weight) compared with antibiotics: ampicillin (0.0. mg), tetracycline (0.03 mg), erythromycine (0.015 mg) nalidixic acid (0.03 mg), cotrimoxazole (0.025 mg). In these tests, two isolates of H.pylori were used.
# The tests were carried out on Egg Yolk Emulsion agar plate, the Cinnamon concentrations on disk were in the range of […].
# Helicobacter pylori [2] = test: as above; type: cell-based; conditions: read-out: Inhibition zone
# [3] = Helicobacter pylori, read-out: Inhibition zone
Compound,"inhibition of H. pylori growth, in words (Helicobacter pylori [1])",zone of inhibition at 2000 µg/disc (Helicobacter pylori [2]) [mm],other results
COc1ccccc1/C=C/C=O,beneficial effect on the inhibition but with a higher concentration,–,"Inhibition zone (Helicobacter pylori [1]; 0.2 mg/disk, * = substantial complete inhibition): 44 mm; Inhibition zone (Helicobacter pylori [1]; 0.4 mg/disk): 57 mm; Inhibition zone (Helicobacter pylori [1]; 0.6 mg/disk): 68 mm"
CC1=CCC2CC1C2(C)C (stereo not drawn) [Alpha-pinene],–,18,–
CC1=CC=C(C(C)C)CC1 [Alpha-terpinene],only a lower inhibition zone,17,–
O=C(OCc1ccccc1)c1ccccc1 [Benzyl-benzoate],–,17,–
O=CC=Cc1ccccc1 [Cinnamaldehyde],substantial complete inhibition,–,zone of inhibition at 50 µg/disc (Helicobacter pylori [1]; [3]): 45 mm; zone of inhibition at 100 µg/disc (Helicobacter pylori [1]; [3]): 60 mm; zone of inhibition at 200 µg/disc (Helicobacter pylori [1]; [3]): > 90 mm
OC/C=C/c1ccccc1 [Cinnamic alcohol],only a lower inhibition zone,–,"zone of inhibition at 200 µg/disc (Helicobacter pylori [1]; [3]): 12 mm; zone of inhibition at 400 µg/disc (Helicobacter pylori [1]; Helicobacter pylori, 0.4 mg/disk): 20 mm"
CC1=CCC(O)(C(C)C)CC1 (stereo not shown) [Terpinen-4-ol],–,22,–
